The first data set in a line: solvent given as SMILES. The following applies: in CN(C)C=O.
Take `CCCCCCC(CCCCCC)N1C(=O)c2cccc3c(-c4ccc(-c5ccc(OC)cc5)cc4)ccc(c23)C1=O`: the emission maximum came to 583.4 nm.
Regarding `CN(C)c1ccc(-c2ccc(-c3cc(N4CCCCC4)c(C#N)c4c3-c3ccccc3CC4)s2)cc1`, the emission maximum is listed as 590 nm.
Compound `CCOC(=O)c1sc(SC)c2c(=O)n(C)nnc12` showed an emission maximum of 487 nm.
The compound `Cc1ccc(C(=O)/C=C/c2ccc(N(C)C)cc2)cc1` gave an emission maximum of 528 nm.
The compound `COc1ccc2c3c(cccc13)C(=O)N(C)C2=O` yielded an emission maximum of 444 nm.

Still in this data set, the particulars now being: in CO.
`c1ccc(N(c2ccccc2)c2ccc(-c3ncc(-c4cnc(-c5ccc(N(c6ccccc6)c6ccccc6)cc5)s4)s3)cc2)cc1` showed an emission maximum of 510 nm.
The compound `CCOC(=O)c1sc(SC)c2c(=O)n(C)nnc12` returned an emission maximum of 508 nm.
Compound `CC1(C)C2=[N+](CCCCCC(=O)NCCNC(=O)CCCCCN3/C(=C/C=C/C=C/C=C/2)C(C)(C)c2cc(S(=O)(=O)[O-])ccc23)c2ccc(S(=O)(=O)[O-])cc21` gave an emission maximum of 778 nm.
In turn, `c1ccc(N(c2ccccc2)c2ccc(-c3ncc(-c4ccc(-c5cnc(-c6ccc(N(c7ccccc7)c7ccccc7)cc6)s5)s4)s3)cc2)cc1` returned an emission maximum of 503 nm.
Same read-out and setting: with `CC1(C)C(/C=C/C=C/C=C/C=C2/N(S(=O)(=O)[O-])c3ccc(S(=O)(=O)[O-])cc3C2(C)C)=[N+](S(=O)(=O)[O-])c2ccc(S(=O)(=O)[O-])cc21` the figure was 776 nm; with `Cc1ccc(C(=O)/C=C/c2ccc(N(C)C)cc2)cc1`, 533 nm.
For `CC(=O)Nc1ccc(S(=O)(=O)O)c(/N=N/c2c(O)c3ccccc3n(C)c2=O)c1`, the emission maximum came out at 512 nm.
Regarding `COc1ccc2c3c(cccc13)C(=O)N(C)C2=O`, the emission maximum was determined as 450 nm.

The same data set, now with this note: in CS(C)=O.
`CC(C)[Si]1(C(C)C)c2cc(C=C(C#N)C#N)ccc2-c2ccc(N(C)C)cc21` came in with an emission maximum of 714 nm.
As for `C(#Cc1ncnc2ccccc12)c1ccc(N(c2ccccc2)c2ccccc2)cc1`, the emission maximum is on record as 616 nm.
Turning to `CN(C)c1ccc(-c2ccc(-c3cc(N4CCCCC4)c(C#N)c4c3-c3ccccc3CC4)s2)cc1`, the emission maximum is 570 nm.
As for `CCOC(=O)c1sc(SC)c2c(=O)n(C)nnc12`, the emission maximum came to 501 nm.
As for `N#Cc1cc2ccccc2oc1=N`, the emission maximum stood at 406 nm.
`N#Cc1cc2ccc(O)cc2oc1=N` returned an emission maximum of 409 nm.
For the compound `CC(=O)Nc1ccc(S(=O)(=O)O)c(/N=N/c2c(O)c3ccccc3n(C)c2=O)c1`, the emission maximum was found to be 526 nm.
As to `COc1ccc2c3c(cccc13)C(=O)N(C)C2=O`, the emission maximum was 452 nm.

Still in this data set, the particulars now being: in Cc1ccccc1.
In turn, `CCCCCCC(CCCCCC)N1C(=O)c2cccc3c(-c4ccc(-c5ccc(OC)cc5)cc4)ccc(c23)C1=O` had an emission maximum of 454.6 nm.
Consider `c1ccc(-c2nc(-c3ccc(-c4ccc(N(c5ccccc5)c5ccccc5)cc4)cn3)oc2-c2ccccc2)cc1`, for which the emission maximum is recorded as 435 nm.
`CN(C)c1ccc(-c2ccc(-c3cc(N4CCCCC4)c(C#N)c4c3-c3ccccc3CC4)s2)cc1`: the emission maximum was 515 nm.
Compound `Cc1cc(-c2nnc(-c3c(C(C)C)cc(C(C)C)cc3C(C)C)o2)ccc1-n1c2ccccc2c2ccccc21` returned an emission maximum of 375 nm.
In turn, `Cc1ccc2c(c1)c1cc(C)ccc1n2-c1cccc(-n2c3ccc(C)cc3c3cc(C)ccc32)c1C#N` displayed an emission maximum of 417 nm.
As to `Cc1cc(-c2nc(-c3ccccc3)nc(-c3ccccc3)n2)ccc1N1c2ccccc2[Si](c2ccccc2)(c2ccccc2)c2ccccc21`, the emission maximum turned out to be 459 nm.
Same read-out and setting: with `Cc1ccc(C(=O)/C=C/c2ccc(N(C)C)cc2)cc1` the figure was 477 nm; with `CC1(C)c2ccccc2N(c2ccc3c(c2)C2(c4cc(N5c6ccccc6C(C)(C)c6ccccc65)ccc4-3)c3ccccc3S(=O)(=O)c3ccccc32)c2ccccc21`, 437 nm; with `F[B-]1(F)n2c(c3cccc4cccc2c43)=Nc2sc3ccccc3[n+]21`, 504 nm.
For `CC(=O)Nc1ccc(S(=O)(=O)O)c(/N=N/c2c(O)c3ccccc3n(C)c2=O)c1`, the emission maximum turned out to be 517 nm.
The compound `CC(C)(C)c1ccc2c(c1)c1cc3c4cc(C(C)(C)C)ccc4c4c5c6ccc(C(C)(C)C)cc6c6cc7c8cc(C(C)(C)C)ccc8c8c2c1c(c34)c(c78)c65` yielded an emission maximum of 685.4 nm.

The data set is the same for the next values; noted with them: in ClC(Cl)(Cl)Cl.
The compound `COc1ccc2c3c(cccc13)C(=O)N(C)C2=O` returned an emission maximum of 412 nm.

The data set is the same for the next values; noted with them: in ClC(Cl)Cl.
Compound `CCCCCCC(CCCCCC)N1C(=O)c2cccc3c(-c4ccc(-c5ccc(OC)cc5)cc4)ccc(c23)C1=O` returned an emission maximum of 492.2 nm.
`CCCCCCN1C(=O)c2cccc3c(-c4ccc(-c5ccc(-c6ccc7c8c(cccc68)C(=O)N(CCCCCC)C7=O)s5)s4)ccc(c23)C1=O` showed an emission maximum of 542 nm.
In the case of `CN(C)c1ccc(-c2ccc(-c3cc(N4CCCCC4)c(C#N)c4c3-c3ccccc3CC4)s2)cc1`, the emission maximum stood at 540 nm.
In the case of `N#Cc1cc2ccccc2oc1=N`, the emission maximum is 411 nm.
Turning to `CCCN1c2ccccc2Sc2cc(/C=C\c3cc(=O)oc4ccccc34)ccc21`, the emission maximum was determined as 618 nm.
`Cc1ccc(C(=O)/C=C/c2ccc(N(C)C)cc2)cc1`: the emission maximum was found to be 508 nm.
`N#Cc1cc2ccc(O)cc2oc1=N` yielded an emission maximum of 415 nm.
The compound `F[B-]1(F)n2c(ccc2-c2cccs2)C(c2ccc(Br)cc2)=C2C=CC(c3cccs3)=[N+]21` showed an emission maximum of 643 nm.
The compound `c1ccc(N(c2ccccc2)c2ccc(-c3ccc(-c4ccc(-c5ccc(-c6ccc(N(c7ccccc7)c7ccccc7)cc6)s5)c5nsnc45)s3)cc2)cc1` yielded an emission maximum of 690 nm.

The same data set, now with this note: in ClCCl.
The compound `CC(C)[Si]1(C(C)C)c2cc(C=C(C#N)C#N)ccc2-c2ccc(N(C)C)cc21` showed an emission maximum of 644 nm.
Still for that read-out and setting: the result for `O=Cc1cnc(-c2c3ccccc3cc3ccccc23)nc1` reads 531 nm; that for `CN(C)c1ccc(C#Cc2cc(C#Cc3ccc(N(C)C)cc3)c3ccc4c(C#Cc5ccc(C(F)(F)F)cc5)cc(C#Cc5ccc(N(C)C)cc5)c5ccc2c3c54)cc1`, 576 nm; that for `C(#Cc1ncnc2ccccc12)c1ccc(N(c2ccccc2)c2ccccc2)cc1`, 565 nm.
Still for that read-out and setting: the result for `CCN(CC)c1ccc(/N=N/c2nc3ccc(OC)cc3s2)cc1` reads 574 nm; that for `F[B-]1(F)n2c(c3cccc4cccc2c43)=Nc2sc3ccccc3[n+]21`, 529 nm.
For the compound `CC(=O)Nc1ccc(S(=O)(=O)O)c(/N=N/c2c(O)c3ccccc3n(C)c2=O)c1`, the emission maximum was determined as 528 nm.
`COC(=O)C1=C(C(=O)OC)C2(c3ccccc3-c3c(Br)cc(Br)cc32)C2(/C=C/c3ccc(Cl)cc3)c3cc(OC)c(OC)cc3CCN12` (centres undefined) returned an emission maximum of 520 nm.

Still in this data set, the particulars now being: in O.
As to `CC1(C)C2=[N+](CCCCCC(=O)NCCNC(=O)CCCCCN3/C(=C/C=C/C=C/C=C/2)C(C)(C)c2cc(S(=O)(=O)[O-])ccc23)c2ccc(S(=O)(=O)[O-])cc21`, the emission maximum amounted to 770 nm.
Compound `CC1(C)C(/C=C/C=C/C=C/C=C2/N(S(=O)(=O)[O-])c3ccc(S(=O)(=O)[O-])cc3C2(C)C)=[N+](S(=O)(=O)[O-])c2ccc(S(=O)(=O)[O-])cc21` returned an emission maximum of 771 nm.
`CC(=O)Nc1ccc(S(=O)(=O)O)c(/N=N/c2c(O)c3ccccc3n(C)c2=O)c1` displayed an emission maximum of 549 nm.
`COc1ccc2c3c(cccc13)C(=O)N(C)C2=O`: the emission maximum is reported as 462 nm.

Still in this data set, the particulars now being: in O=P(c1ccccc1)(c1ccccc1)c1ccccc1Oc1ccccc1P(=O)(c1ccccc1)c1ccccc1.
In turn, `Cc1ccc2c(c1)c1cc(C)ccc1n2-c1cccc(-n2c3ccc(C)cc3c3cc(C)ccc32)c1C#N` displayed an emission maximum of 432 nm.
Regarding `Cc1cc(-c2nc(-c3ccccc3)nc(-c3ccccc3)n2)ccc1N1c2ccccc2[Si](c2ccccc2)(c2ccccc2)c2ccccc21`, the emission maximum stood at 460 nm.

The same data set, now with this note: in c1ccccc1.
`CC(C)[Si]1(C(C)C)c2cc(C=C(C#N)C#N)ccc2-c2ccc(N(C)C)cc21` displayed an emission maximum of 566 nm.
Same read-out and setting: with `c1ccc(-c2nc(-c3ccc(-c4ccc(N(c5ccccc5)c5ccccc5)cc4)cn3)oc2-c2ccccc2)cc1` the figure was 438 nm; with `Cc1ccc(C(=O)/C=C/c2ccc(N(C)C)cc2)cc1`, 473 nm.
